According to patent US10787452B2 (Vertex Pharmaceuticals Incorporated, priority 2012, dated 2020):

System: HCT116 colorectal cancer cells
Experiment: Cisplatin sensitization assay (96 h cell viability MTS);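 further: compound concentration needed to lower the Cisplatin-alone IC50 by a set fold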
Type: cell-based
Conditions: 96 h MTS, compound plus Cisplatin
Procedure, shortened: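 Full-matrix combination: compound × cisplatin, 2-fold dilutions from 10 μM top final, co-added; 96 h, 37° C, 5% CO2; MTS read-out after 1 h.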

Row | Compound | Cisplatin Sensitization Assay
1 | CC(=O)N1CCC(c2ccncc2NC(=O)c2c(N)nn3cc(F)cnc23)CC1 [I-C-69, N-(4-(1-acetylpiperidin-4-yl)pyridin-3-yl)-2-amino-6-fluoropyrazolo[1,5-a]pyrimidine-3-carboxamide] | +++ (Compounds with a Cisplatin sensitization value of <0.02 μM are marked with “+++.”)
2 | CC(C)(C)N1CCN(c2ccncc2NC(=O)c2c(N)nn3cc(Cl)cnc23)CC1 [I-N-34, 2-amino-N-(4-(4-(tert-butyl)piperazin-1-yl)pyridin-3-yl)-6-chloropyrazolo[1,5-a]pyrimidine-3-carboxamide] | ++ (Compounds with a Cisplatin sensitization value >0.02 μM but <0.2 μM are marked with “++.”)
3 | CCOC1CN(C(=O)C2CCN(c3ccncc3NC(=O)c3c(N)nn4cc(F)cnc34)CC2)C1 [I-G-91, 2-amino-N-(4-(4-(3-ethoxyazetidine-1-carbonyl)piperidin-1-yl)pyridin-3-yl)-6-fluoropyrazolo[1,5-a]pyrimidine-3-carboxamide] | +++ (Compounds with a Cisplatin sensitization value of <0.02 μM are marked with “+++.”)
4 | CN1CCN(C(=O)C2CCN(c3c(F)cncc3NC(=O)c3c(N)nn4cc(Cl)cnc34)CC2)CC1 [I-G-5, 2-amino-6-chloro-N-(5-fluoro-4-(4-(4-methylpiperazine-1-carbonyl)piperidin-1-yl)pyridin-3-yl)pyrazolo[1,5-a]pyrimidine-3-carboxamide] | +++ (Compounds with a Cisplatin sensitization value of <0.02 μM are marked with “+++.”)
5 | Nc1nn2cc(F)cnc2c1C(=O)Nc1cnccc1N1CCN(C(=O)C2COC2)CC1 [I-N-249] | +++ (Compounds with a Cisplatin sensitization value of <0.02 μM are marked with “+++.”)
6 | Nc1nn2cc(Cl)cnc2c1C(=O)Nc1cnccc1N1CCn2ccnc2C1 [I-N-44, 2-amino-6-chloro-N-(4-(5,6-dihydroimidazo[1,2-a]pyrazin-7(8H)-yl)pyridin-3-yl)pyrazolo[1,5-a]pyrimidine-3-carboxamide] | ++ (Compounds with a Cisplatin sensitization value >0.02 μM but <0.2 μM are marked with “++.”)
7 | Cn1ccc2cncc(NC(=O)c3c(N)nn4cc(F)cnc34)c21 [I-N-259, 2-amino-6-fluoro-N-(1-methyl-1H-pyrrolo[3,2-c]pyridin-7-yl)pyrazolo[1,5-a]pyrimidine-3-carboxamide] | + (Compounds with a Cisplatin sensitization value >0.2 μM but <5 μM are marked with “+.”)
8 | Nc1nn2cc(F)cnc2c1C(=O)Nc1cnccc1OC1CN2CCC1CC2 (racemic) [I-O-6, (R,S)-2-amino-6-fluoro-N-(4-(quinuclidin-3-yloxy)pyridin-3-yl)pyrazolo[1,5-a]pyrimidine-3-carboxamide] | +++ (Compounds with a Cisplatin sensitization value of <0.02 μM are marked with “+++.”)
9 | CN(C)CCCNC(=O)C1CCN(c2c(F)cncc2NC(=O)c2c(N)nn3cc(F)cnc23)CC1 [I-G-26, 2-amino-N-(4-(4-((3-(dimethylamino)propyl)carbamoyl)piperidin-1-yl)-5-fluoropyridin-3-yl)-6-fluoropyrazolo[1,5-a]pyrimidine-3-carboxamide] | ++ (Compounds with a Cisplatin sensitization value >0.02 μM but <0.2 μM are marked with “++.”)
10 | Nc1nn2cc(Cl)cnc2c1C(=O)Nc1cnccc1N1CCC(N2CC[C@@H](F)C2)CC1 [I-N-98, (R)-2-amino-6-chloro-N-(4-(4-(3-fluoropyrrolidin-1-yl)piperidin-1-yl)pyridin-3-yl)pyrazolo[1,5-a]pyrimidine-3-carboxamide] | +++ (Compounds with a Cisplatin sensitization value of <0.02 μM are marked with “+++.”)
11 | CN(C)CCCN(C)C(=O)C1CCN(c2c(F)cncc2NC(=O)c2c(N)nn3cc(F)cnc23)CC1 [I-G-16, 2-amino-N-(4-(4-((3-(dimethylamino)propyl)(methyl)carbamoyl)piperidin-1-yl)-5-fluoropyridin-3-yl)-6-fluoropyrazolo[1,5-a]pyrimidine-3-carboxamide] | +++ (Compounds with a Cisplatin sensitization value of <0.02 μM are marked with “+++.”)
12 | CN1CCN(c2ccc(-c3ccncc3NC(=O)c3c(N)nn4cc(F)cnc34)cn2)CC1 [I-C-21, 2-amino-6-fluoro-N-(6-(4-methylpiperazin-1-yl)-[3,4′-bipyridin]-3′-yl)pyrazolo[1,5-a]pyrimidine-3-carboxamide] | +++ (Compounds with a Cisplatin sensitization value of <0.02 μM are marked with “+++.”)
13 | CN(C)CC1CCN(c2ccncc2NC(=O)c2c(N)nn3cc(F)cnc23)CC1 [I-N-267, 2-amino-N-(4-(4-((dimethylamino)methyl)piperidin-1-yl)pyridin-3-yl)-6-fluoropyrazolo[1,5-a]pyrimidine-3-carboxamide] | +++ (Compounds with a Cisplatin sensitization value of <0.02 μM are marked with “+++.”)
14 | Nc1nn2cc(F)cnc2c1C(=O)Nc1cnccc1N1CCC(N2CCCC2=O)CC1 [I-N-230, 2-amino-6-fluoro-N-(4-(4-(2-oxopyrrolidin-1-yl)piperidin-1-yl)pyridin-3-yl)pyrazolo[1,5-a]pyrimidine-3-carboxamide] | +++ (Compounds with a Cisplatin sensitization value of <0.02 μM are marked with “+++.”)
15 | Nc1nn2cc(F)cnc2c1C(=O)Nc1cnccc1N1CCN2C(=O)CC[C@@H]2C1 [I-N-258, (R)-2-amino-6-fluoro-N-(4-(6-oxohexahydropyrrolo[1,2-a]pyrazin-2(1H)-yl)pyridin-3-yl)pyrazolo[1,5-a]pyrimidine-3-carboxamide] | ++ (Compounds with a Cisplatin sensitization value >0.02 μM but <0.2 μM are marked with “++.”)
16 | N#CCc1cnc2c(C(=O)Nc3cnccc3N3CCOCC3)c(N)nn2c1 [I-N-81, 2-amino-6-(cyanomethyl)-N-(4-morpholinopyridin-3-yl)pyrazolo[1,5-a]pyrimidine-3-carboxamide] | +++ (Compounds with a Cisplatin sensitization value of <0.02 μM are marked with “+++.”)
17 | CC1(S(C)(=O)=O)CCN(c2ccncc2NC(=O)c2c(N)nn3cc(F)cnc23)CC1 [I-N-243, 2-amino-6-fluoro-N-(4-(4-methyl-4-(methylsulfonyl)piperidin-1-yl)pyridin-3-yl)pyrazolo[1,5-a]pyrimidine-3-carboxamide] | +++ (Compounds with a Cisplatin sensitization value of <0.02 μM are marked with “+++.”)
18 | Nc1nn2cc(Cl)cnc2c1C(=O)Nc1cnccc1O[C@@H]1CCCNC1 [I-O-81, (R)-2-amino-6-chloro-N-(4-(piperidin-3-yloxy)pyridin-3-yl)pyrazolo[1,5-a]pyrimidine-3-carboxamide] | ++ (Compounds with a Cisplatin sensitization value >0.02 μM but <0.2 μM are marked with “++.”)
19 | COCC1CN(C(=O)C2CCN(c3c(F)cncc3NC(=O)c3c(N)nn4cc(F)cnc34)CC2)C1 [I-G-98, 2-amino-6-fluoro-N-(5-fluoro-4-(4-(3-(methoxymethyl)azetidine-1-carbonyl)piperidin-1-yl)pyridin-3-yl)pyrazolo[1,5-a]pyrimidine-3-carboxamide] | +++ (Compounds with a Cisplatin sensitization value of <0.02 μM are marked with “+++.”)
20 | CN1CCC(c2ccncc2NC(=O)c2c(N)nn3cc(C(C)(C)C#N)cnc23)CC1 [I-C-23, 2-amino-6-(2-cyanopropan-2-yl)-N-(4-(1-methylpiperidin-4-yl)pyridin-3-yl)pyrazolo[1,5-a]pyrimidine-3-carboxamide] | + (Compounds with a Cisplatin sensitization value >0.2 μM but <5 μM are marked with “+.”)
21 | Nc1nn2cc(Cl)cnc2c1C(=O)Nc1cnccc1N1CCC(N2CCCC2)CC1 [I-N-105, 2-amino-6-chloro-N-(4-(4-(pyrrolidin-1-yl)piperidin-1-yl)pyridin-3-yl)pyrazolo[1,5-a]pyrimidine-3-carboxamide] | +++ (Compounds with a Cisplatin sensitization value of <0.02 μM are marked with “+++.”)
22 | Nc1nn2cc(F)cnc2c1C(=O)Nc1cnccc1-c1ccc(C(=O)N2CCC(N3CCCC3)CC2)nc1 [I-C-53, 2-amino-6-fluoro-N-(6-(4-(pyrrolidin-1-yl)piperidine-1-carbonyl)-[3,4′-bipyridin]-3′-yl)pyrazolo[1,5-a]pyrimidine-3-carboxamide] | +++ (Compounds with a Cisplatin sensitization value of <0.02 μM are marked with “+++.”)
23 | CN1CC(C(=O)N2CCN(c3c(F)cncc3NC(=O)c3c(N)nn4cc(F)cnc34)CC2)C1 [I-N-194] | +++ (Compounds with a Cisplatin sensitization value of <0.02 μM are marked with “+++.”)
24 | Nc1nn2cc(F)cnc2c1C(=O)Nc1cncc(F)c1N1CCC(C(=O)N2CCC(N3CCCCC3)C2)CC1 (centres unmarked) [I-G-64, 2-amino-6-fluoro-N-(5-fluoro-4-(4-(3-(piperidin-1-yl)pyrrolidine-1-carbonyl)piperidin-1-yl)pyridin-3-yl)pyrazolo[1,5-a]pyrimidine-3-carboxamide] | +++ (Compounds with a Cisplatin sensitization value of <0.02 μM are marked with “+++.”)
25 | CC1(O)CN(C(=O)C2CCN(c3c(F)cncc3NC(=O)c3c(N)nn4cc(F)cnc34)CC2)C1 [I-G-63, 2-amino-6-fluoro-N-(5-fluoro-4-(4-(3-hydroxy-3-methylazetidine-1-carbonyl)piperidin-1-yl)pyridin-3-yl)pyrazolo[1,5-a]pyrimidine-3-carboxamide] | +++ (Compounds with a Cisplatin sensitization value of <0.02 μM are marked with “+++.”)
26 | Nc1nn2cc(F)cnc2c1C(=O)Nc1cnccc1-c1ccc(S(=O)(=O)N2CCC2)cc1 [I-C-64, 2-amino-N-(4-(4-(azetidin-1-ylsulfonyl)phenyl)pyridin-3-yl)-6-fluoropyrazolo[1,5-a]pyrimidine-3-carboxamide] | +++ (Compounds with a Cisplatin sensitization value of <0.02 μM are marked with “+++.”)
